Results from patent US20170283425A1, “COMPOUNDS FOR THE INHIBITION OF CYCLOPHILINS AND USES THEREOF” (Merck Patent GmbH, priority 2016, published 2017).

Legend:
CypD [1] = molecular target: T1, CypD (Homo sapiens, UniProt P30405); experiment: CypD binding assay (competition fluorescence polarisation with fluorescein-labelled cyclosporin)
Protocol: The binding capacity of the compounds were measured using a competition Fluorescence-Polarisation based assay with fluorescine labelled cyclosporin. The protocol used was adapted from Hausch et al, Med Chem lett 2010, p 536.

CypD [2] = molecular target: T1, CypD; experiment: SPR binding; conditions: SPR surface; read-out: SPR CypD (KDSS)
From the text: Binding was confirmed on an SPR surface using a protocol adapted from Mori et al., J. Biomolecular Screening, 2009 p 419.

T1 sequence (P30405 30-207): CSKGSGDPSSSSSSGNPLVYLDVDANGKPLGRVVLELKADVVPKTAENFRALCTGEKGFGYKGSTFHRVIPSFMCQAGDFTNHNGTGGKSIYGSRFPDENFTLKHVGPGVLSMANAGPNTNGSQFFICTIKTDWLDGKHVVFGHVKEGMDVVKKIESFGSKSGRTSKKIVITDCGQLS

| IC50 (CypD [1]) | Kd (CypD [2]) | Compound |
| --- | --- | --- |
| 1000 to 100000 nM | 1000 to 100000 nM | C[C@H](NC(=O)CCc1ccc2c(c1)[C@H]1C[C@@H](N2)[C@H](O)CO1)C(=O)N1CCCC1 [Compound 6, 3-((2R,3S,6R)-3-hydroxy-2,3,4,6-tetrahydro-1H-2,6-methanobenzo[c][1,5]oxazocin-8-yl)-N—((S)-1-oxo-1-(pyrrolidin-1-yl)propan-2-yl)propanamide] |
| 1000 to 100000 nM | 1000 to 100000 nM | CCN1Cc2cc(CNC(=O)NCC(=O)N3CCCC3c3ccccn3)ccc2NCCC1=O (stereo not drawn) [Compound 36, 1-(5-Ethyl-4-oxo-1,2,3,4,5,6-hexahydro-benzo[b][1,5]diazocin-8-ylmethyl)-3-[2-oxo-2-(2-pyridin-2-yl-pyrrolidin-1-yl)-ethyl]-urea] |
| 1000 to 100000 nM | 1000 to 100000 nM | O=C(NCC(=O)N1CCC[C@@H]1CO)NCc1ccc2c(c1)[C@H]1C[C@@H](N2)[C@H](O)CO1 [Compound 14, 1-(((2R,3S,6R)-3-hydroxy-2,3,4,6-tetrahydro-1H-2,6-methanobenzo[c][1,5]oxazocin-8-yl)methyl)-3-(2-((R)-2-(hydroxymethyl)pyrrolidin-1-yl)-2-oxoethyl)urea] |
| 1000 to 100000 nM | 1000 to 100000 nM | O=C(NCC(=O)N1CCC[C@H]1CO)NCc1ccc2c(c1)[C@H]1C[C@@H](N2)[C@H](O)CO1 [Compound 13, 1-(((2R,3S,6R)-3-hydroxy-2,3,4,6-tetrahydro-1H-2,6-methanobenzo[c][1,5]oxazocin-8-yl)methyl)-3-(2-((S)-2-(hydroxymethyl)pyrrolidin-1-yl)-2-oxoethyl)urea] |
| 1000 to 100000 nM | 1000 to 100000 nM | CCN1Cc2cc(CNC(=O)NCC(=O)N3CCCC3c3ccccc3C(F)(F)F)ccc2NCCC1=O (stereo not drawn) [Compound 15, 1-(5-Ethyl-4-oxo-1,2,3,4,5,6-hexahydro-benzo[b][1,5]diazocin-8-ylmethyl)-3-{2-oxo-2-[2-(2-trifluoromethyl-phenyl)-pyrrolidin-1-yl]-ethyl}-urea] |
| 1000 to 100000 nM | 1000 to 100000 nM | CCN1Cc2cc(CCC(=O)N[C@H](C(=O)N3CCCC3)c3ccccc3)ccc2NCCC1=O [Compound 32, 3-(5-Ethyl-4-oxo-1,2,3,4,5,6-hexahydro-benzo[b][1,5]diazocin-8-yl)-N—((S)-2-oxo-1-phenyl-2-pyrrolidin-1-yl-ethyl)-propionamide] |
| 1000 to 100000 nM | 1000 to 100000 nM | O=C(NCC(=O)N1CCC[C@@H]1C(F)(F)F)NCc1ccc2c(c1)[C@@H]1C[C@H](N2)[C@H](O)CO1 [Compound 37, 1-(((2S,3S,6S)-3-hydroxy-2,3,4,6-tetrahydro-1H-2,6-methanobenzo[c][1,5]oxazocin-8-yl)methyl)-3-(2-oxo-2-((R)-2-(trifluoromethyl)pyrrolidin-1-yl)ethyl)urea] |
| 1000 to 100000 nM | 1000 to 100000 nM | O=C(NCC(=O)N1CCCC1c1cccnc1)NCc1ccc2c(c1)[C@H]1C[C@@H](N2)[C@H](O)CO1 (stereo partly drawn) [Compound 18, 1-((1R,9R,10S)-10-Hydroxy-12-oxa-8-aza-tricyclo[7.3.1.02,7]trideca-2(7),3,5-trien-4-ylmethyl)-3-[2-oxo-2-(2-pyridin-3-yl-pyrrolidin-1-yl)-ethyl]-urea] |
| 1000 to 100000 nM | 1000 to 100000 nM | CCN1Cc2cc(CCC(=O)NCC(=O)N3CCC[C@@H]3c3ccccc3SC)ccc2NCCC1=O [Compound 11, 3-(5-Ethyl-4-oxo-1,2,3,4,5,6-hexahydro-benzo[b][1,5]diazocin-8-yl)-N-{2-[(R)-2-(2-methylsulfanyl-phenyl)-pyrrolidin-1-yl]-2-oxo-ethyl}-propionamide] |
| 1000 to 100000 nM | 1000 to 100000 nM | CSc1ccccc1[C@H]1CCCN1C(=O)CN(C)C(=O)NCc1ccc2c(c1)[C@H]1C[C@@H](N2)[C@H](O)CO1 [Compound 16, 3-((1R,9R,10S)-10-Hydroxy-12-oxa-8-aza-tricyclo[7.3.1.02,7]trideca-2(7),3,5-trien-4-ylmethyl)-1-methyl-1-{2-[(R)-2-(2-methylsulfanyl-phenyl)-pyrrolidin-1-yl]-2-oxo-ethyl}-urea] |
| 1000 to 100000 nM | 1000 to 100000 nM | CCN1Cc2cc(CCC(=O)N[C@@H](CO)C(=O)N3CCCC3)ccc2NCCC1=O [Compound 29, 3-(5-Ethyl-4-oxo-1,2,3,4,5,6-hexahydro-benzo[b][1,5]diazocin-8-yl)-N—((S)-1-hydroxymethyl-2-oxo-2-pyrrolidin-1-yl-ethyl)-propionamide] |
| 1000 to 100000 nM | 1000 to 100000 nM | CCN1Cc2cc(CCC(=O)NCC(=O)N3CCC[C@@H]3CO)ccc2NCCC1=O [Compound 33, 3-(5-Ethyl-4-oxo-1,2,3,4,5,6-hexahydro-benzo[b][1,5]diazocin-8-yl)-N-[2-(®-2-hydroxymethyl-pyrrolidin-1-yl)-2-oxo-ethyl]-propionamide] |
| 1000 to 100000 nM | 1000 to 100000 nM | CCN1Cc2cc(CNC(=O)NCC(=O)N(C)[C@H](C)c3ccccc3)ccc2NCCC1=O [Compound 35, (R)-2-(3-((5-ethyl-4-oxo-1,2,3,4,5,6-hexahydrobenzo[b][1,5]diazocin-8-yl)methyl)ureido)-N-methyl-N-(1-phenylethyl)acetamide] |
| 1000 to 100000 nM | 1000 to 100000 nM | CCN1Cc2cc(CNC(=O)NCC(=O)N3CCC[C@@H]3C(F)(F)F)ccc2NCCC1=O [Compound 24, 1-(5-Ethyl-4-oxo-1,2,3,4,5,6-hexahydro-benzo[b][1,5]diazocin-8-ylmethyl)-3-[2-oxo-2-((R)-2-trifluoromethyl-pyrrolidin-1-yl)-ethyl]-urea] |
| 1000 to 100000 nM | 1000 to 100000 nM | CCN1Cc2cc(CCC(=O)NCC(=O)N(C)[C@H](C)c3ccccc3)ccc2NCCC1=O [Compound 31, (R)-3-(5-ethyl-4-oxo-1,2,3,4,5,6-hexahydrobenzo[b][1,5]diazocin-8-yl)-N-(2-(methyl(1-phenylethyl)amino)-2-oxoethyl)propanamide] |
| 1000 to 100000 nM | 1000 to 100000 nM | CCN1Cc2cc(CCC(=O)NCC(=O)N3CCCC3)ccc2NCCC1=O [Compound 27, 3-(5-Ethyl-4-oxo-1,2,3,4,5,6-hexahydro-benzo[b][1,5]diazocin-8-yl)-N-(2-oxo-2-pyrrolidin-1-yl-ethyl)-propionamide] |
| < 1000 nM | < 1000 nM | CSc1ccccc1[C@H]1CCCN1C(=O)CNC(=O)CCc1ccc2c(c1)[C@H]1C[C@@H](N2)[C@H](O)CO1 [Compound 5, 3-((1R,9R,10S)-10-Hydroxy-12-oxa-8-aza-tricyclo[7.3.1.02,7]trideca-2(7),3,5-trien-4-yl)-N-{2-[(R)-2-(2-methylsulfanyl-phenyl)-pyrrolidin-1-yl]-2-oxo-ethyl}-propionamide] |
| 1000 to 100000 nM | 1000 to 100000 nM | CCN1Cc2cc(CCC(=O)NCC(=O)N3CCCC3c3ccccc3C(F)(F)F)ccc2NCCC1=O (stereo not drawn) [Compound 19, 3-(5-Ethyl-4-oxo-1,2,3,4,5,6-hexahydro-benzo[b][1,5]diazocin-8-yl)-N-{2-oxo-2-[2-(2-trifluoromethyl-phenyl)-pyrrolidin-1-yl]-ethyl}-propionamide] |
| 1000 to 100000 nM | 1000 to 100000 nM | O=C(NCC(=O)N1CCCC1c1ccccc1C(F)(F)F)NCc1ccc2c(c1)[C@@H]1C[C@H](N2)[C@H](O)CO1 (stereo partly drawn) [Compound 17, 1-(((2S,3S,6S)-3-hydroxy-2,3,4,6-tetrahydro-1H-2,6-methanobenzo[c][1,5]oxazocin-8-yl)methyl)-3-(2-oxo-2-(2-(2-(trifluoromethyl)phenyl)pyrrolidin-1-yl)ethyl)urea] |
| 1000 to 100000 nM | 1000 to 100000 nM | CCN1Cc2cc(CCC(=O)NCC(=O)N3CCC[C@H]3CO)ccc2NCCC1=O [Compound 34, 3-(5-Ethyl-4-oxo-1,2,3,4,5,6-hexahydro-benzo[b][1,5]diazocin-8-yl)-N-[2-((S)-2-hydroxymethyl-pyrrolidin-1-yl)-2-oxo-ethyl]-propionamide] |
| 1000 to 100000 nM | 1000 to 100000 nM | CCN1Cc2cc(CCC(=O)NCC(=O)N3CCCC3c3ccccn3)ccc2NCCC1=O (stereo not drawn) [Compound 28, 3-(5-Ethyl-4-oxo-1,2,3,4,5,6-hexahydro-benzo[b][1,5]diazocin-8-yl)-N-[2-oxo-2-(2-pyridin-2-yl-pyrrolidin-1-yl)-ethyl]-propionamide] |
| 1000 to 100000 nM | 1000 to 100000 nM | CCN1Cc2cc(CCC(=O)NCC(=O)N3CCCC4(CCCCC4)C3)ccc2NCCC1=O [Compound 25, N-[2-(2-Aza-spiro[5.5]undec-2-yl)-2-oxo-ethyl]-3-(5-ethyl-4-oxo-1,2,3,4,5,6-hexahydro-benzo[b][1,5]diazocin-8-yl)-propionamide] |
| < 1000 nM | < 1000 nM | O=C(NCC(=O)N1CCCC1c1ccccc1C(F)(F)F)NCc1ccc2c(c1)[C@H]1C[C@@H](N2)[C@H](O)CO1 (stereo partly drawn) [Compound 4] |
| 1000 to 100000 nM | 1000 to 100000 nM | CCN1Cc2cc(CNC(=O)NCC(=O)N3CCC[C@H]3CO)ccc2NCCC1=O [Compound 22, 1-(5-Ethyl-4-oxo-1,2,3,4,5,6-hexahydro-benzo[b][1,5]diazocin-8-ylmethyl)-3-[2-((S)-2-hydroxymethyl-pyrrolidin-1-yl)-2-oxo-ethyl]-urea] |
| < 1000 nM | < 1000 nM | CCN1Cc2cc(CNC(=O)NCC(=O)N3CCC[C@@H]3c3ccccc3SC)ccc2NCCC1=O [Compound 3, 1-(5-Ethyl-4-oxo-1,2,3,4,5,6-hexahydro-benzo[b][1,5]diazocin-8-ylmethyl)-3-{2-[(R)-2-(2-methylsulfanyl-phenyl)-pyrrolidin-1-yl]-2-oxo-ethyl}-urea] |
| 1000 to 100000 nM | 1000 to 100000 nM | CN(C(=O)CNC(=O)NCc1ccc2c(c1)[C@H]1C[C@@H](N2)[C@H](O)CO1)C1CCCC1 [Compound 20, N-cyclopentyl-2-(3-(((2R,3S,6R)-3-hydroxy-2,3,4,6-tetrahydro-1H-2,6-methanobenzo[c][1,5]oxazocin-8-yl)methyl)ureido)-N-methylacetamide] |

| Compound | IC50 (CypD [1]) | Kd (CypD [2]) |
| --- | --- | --- |
| 3-((1R,9R,10S)-10-Hydroxy-12-oxa-8-aza-tricyclo[7.3.1.02,7]trideca-2(7),3,5-trien-4-yl)-N-(2-oxo-2-pyrrolidin-1-yl-ethyl)-propionamide [Compound 26] | 1000 to 100000 nM | 1000 to 100000 nM |
